Consider one compound from US20230413814A1, “A METHOD FOR REMOVING A BIOFILM” (TECHNOLOGICAL UNIVERSITY DUBLIN, priority 2020, published 2023).

Data set [1] deals with Enterococcus faecalis ATCC 7080. Kind of data set: Biofilm formation in 96 well plate, crystal violet assay. The class given is cell-based. To be noted: for reduction of biofilm formation versus control: 24 hours, 37° C., FIG. 1 B. Here is the method:
(§1) FIG. 1: The effect of varying concentrations of DHA on the ability of Klebsiella pneumoniae NCIMB 418 (A) and Enterococcus faecalis ATCC 7080 (B) to form a biofilm in vitro. (10^6 CFU/well was incubated with various concentrations of DHA in a 96 well plate for 24 hours statically at 37° C. Biofilm formation was assessed using the crystal violet assay. Data represents the mean±SD for six independent experiments, carried out in triplicate. One-way ANOVA was performed for statistical analysis. *****P<0.001 compared to both the control (no DHA) and vehicle control (1% DMSO).
(§2) The effect of varying concentrations of DHA on the ability of Klebsiella pneumoniae NCIMB 418 and Enterococcus faecalis ATCC 7080 to form a biofilm in vitro was investigated. 10^6 CFU/well was incubated with various concentrations of DHA in a 96 well plate for 24 hours statically at 37° C. Biofilm formation was assessed using the crystal violet assay. Data represents the mean±SD for six independent experiments, carried out in triplicate. The assay involved seeding cells at 10^6 CFU/ml in media with DHA. Cells were then left for 24 hrs to form biofilms before washing and staining with Crystal Violet. Crystal violet adhered to cells stuck to the sides of the tube/well. The samples were washed again to remove any unbound dye before dissolving the stain in acetic acid and the reading was measured in a spectrophotometer. The colour intensity relates to the level of biofilm present. The more colour the more bacteria in the biofilm (Merrit, J. H, et al., (2005) “Growing and Analysing Static Biofilms”, Current Protocols in Microbiology, Chapter 1(July), p. Unit 1B.1.).

The subject of data set [2] is Klebsiella pneumoniae NCIMB 418. The description is as above. The class given is cell-based. As to conditions: for reduction of biofilm formation versus control: 24 hours, 37° C., FIG. 1 A. Here is the method:
as §1, §2

Data set [3] concerns human gingival fibroblasts (HGFs). Set-up: dose or concentration left out as unconfirmed. As to conditions: exposed for 24 and 48 hours; cited from earlier work.
In data set [4] the test system is human periodontal ligament cells (hPDLCs). Set-up: dose or concentration left out as unconfirmed. To be noted: exposed for 24 and 48 hours; cited from earlier work.
Where [5] appears, read: summary statement on FIG. 1, concentration not stated.

Each structure is given as a SMILES string.

On to `CC/C=C\C/C=C\C/C=C\C/C=C\C/C=C\C/C=C\CCC(=O)O` [DHA, docosahexaenoic acid], for which the “reduction of biofilm formation versus control” value in data set [1] (DHA 6.25 μM) is reported as about 20%; in data set [1] (DHA 100 μM), about 65%; in data set [2] (DHA 6.25 μM), about 40%; in data set [2] (DHA 100 μM) it was about 65%. Further, the reducing biofilm formation entry in data set [1] (setting [5]) and in data set [2] (setting [5]) was “approximately 60%” throughout. For the same compound, the cytotoxic effects entry in data set [3] and in data set [4] was “exhibited cytotoxic effects” each time.
